Assay results published in ChEMBL document CHEMBL1201862, “PubChem BioAssay data set” (2004).
Active and inactive are the calls of the source.

What was measured:
[1] = target: T1, Rac GTPase-activating protein 1 (Homo sapiens, UniProt Q9H0H5); experiment: blockers of MgcRacGAP-driven Rac1 GTP hydrolysis – biochemical, ADP Hunter fluorescence, primary and confirmatory, confirmation (AID 624330); format: functional
T1 sequence (Q9H0H5 whole entry): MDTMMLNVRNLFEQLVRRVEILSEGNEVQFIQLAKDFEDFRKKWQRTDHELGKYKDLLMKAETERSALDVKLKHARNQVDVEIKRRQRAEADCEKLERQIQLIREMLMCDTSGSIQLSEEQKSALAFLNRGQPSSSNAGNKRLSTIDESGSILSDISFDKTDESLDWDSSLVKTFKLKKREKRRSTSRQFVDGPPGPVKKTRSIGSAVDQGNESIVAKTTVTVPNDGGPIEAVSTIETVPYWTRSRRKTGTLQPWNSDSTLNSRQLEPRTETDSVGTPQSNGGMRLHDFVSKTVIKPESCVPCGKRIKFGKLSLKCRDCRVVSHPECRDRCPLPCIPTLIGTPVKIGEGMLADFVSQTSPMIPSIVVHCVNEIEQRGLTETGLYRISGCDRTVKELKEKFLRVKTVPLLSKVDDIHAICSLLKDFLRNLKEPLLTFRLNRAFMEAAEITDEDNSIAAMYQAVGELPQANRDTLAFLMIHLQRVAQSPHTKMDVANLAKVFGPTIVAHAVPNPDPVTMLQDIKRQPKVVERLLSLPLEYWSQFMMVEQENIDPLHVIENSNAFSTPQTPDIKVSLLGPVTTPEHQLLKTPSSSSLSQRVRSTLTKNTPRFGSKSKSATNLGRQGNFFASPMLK

Protein skinhead-1 = target: T2, Protein skinhead-1 (Caenorhabditis elegans, UniProt P34707); format: functional
T2 sequence (P34707 whole entry): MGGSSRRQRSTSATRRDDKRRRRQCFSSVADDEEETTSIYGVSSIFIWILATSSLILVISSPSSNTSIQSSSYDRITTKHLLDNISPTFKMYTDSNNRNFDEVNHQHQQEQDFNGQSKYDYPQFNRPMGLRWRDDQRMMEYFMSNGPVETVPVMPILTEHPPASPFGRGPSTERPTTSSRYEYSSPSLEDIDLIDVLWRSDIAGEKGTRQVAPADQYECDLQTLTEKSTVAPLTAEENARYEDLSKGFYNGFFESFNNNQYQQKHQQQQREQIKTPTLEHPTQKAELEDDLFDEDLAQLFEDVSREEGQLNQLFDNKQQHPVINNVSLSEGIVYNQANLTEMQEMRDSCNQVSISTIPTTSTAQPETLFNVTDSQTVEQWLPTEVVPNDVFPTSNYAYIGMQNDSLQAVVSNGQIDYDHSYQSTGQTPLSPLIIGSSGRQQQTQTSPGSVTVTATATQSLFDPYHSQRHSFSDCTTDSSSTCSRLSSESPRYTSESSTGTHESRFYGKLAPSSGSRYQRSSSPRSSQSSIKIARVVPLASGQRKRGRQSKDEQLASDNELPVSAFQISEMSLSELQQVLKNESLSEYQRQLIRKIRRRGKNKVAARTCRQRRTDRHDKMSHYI

[2] = target: T3, High affinity choline transporter 1 (Homo sapiens, UniProt Q9GZV3); experiment: human choline transporter blockers, potency – cell-based, 5-point CRC, membrane potential dye, dose response (AID 504840); format: functional
T3 sequence (Q9GZV3 whole entry): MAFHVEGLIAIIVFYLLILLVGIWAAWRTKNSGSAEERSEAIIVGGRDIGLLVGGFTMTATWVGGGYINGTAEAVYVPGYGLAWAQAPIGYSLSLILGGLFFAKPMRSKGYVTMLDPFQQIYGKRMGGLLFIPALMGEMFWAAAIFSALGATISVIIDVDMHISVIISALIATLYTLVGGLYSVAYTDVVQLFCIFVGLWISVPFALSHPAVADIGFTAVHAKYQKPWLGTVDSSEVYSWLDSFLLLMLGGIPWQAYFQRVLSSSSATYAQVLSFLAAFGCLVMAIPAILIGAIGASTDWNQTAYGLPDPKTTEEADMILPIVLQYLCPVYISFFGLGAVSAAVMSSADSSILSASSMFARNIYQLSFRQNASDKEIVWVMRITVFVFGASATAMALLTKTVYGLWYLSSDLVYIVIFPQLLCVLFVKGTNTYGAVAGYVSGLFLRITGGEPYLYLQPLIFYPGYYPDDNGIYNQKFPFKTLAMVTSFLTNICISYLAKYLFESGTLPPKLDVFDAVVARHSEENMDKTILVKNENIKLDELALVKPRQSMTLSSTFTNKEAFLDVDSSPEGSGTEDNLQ

[3] = luciferase reporter signal suppression in cells – H4 neuroglioma cells, luminescence, dose response (AID 1990); format: functional, cell-based
[4] = Luminescence Cell-Based Dose Response HTS to Identify Inhibitors of 5'UTR Stem-Loop Driven Prion Protein mRNA Translation in H4 Neuroglioblastoma Cells. [Related pubchem assays: 1827 (Project Summary), 1813 (Primary HTS)]; format: functional
[5] = alpha-synuclein stem-loop luciferase translation blockers – H4 neuroglioma cells, luminescence, confirmation (AID 1988); format: functional, cell-based
[6] = target: T4, Replicative DNA helicase DnaB (Mycobacterium tuberculosis, UniProt P9WMR3); experiment: DnaB intein splicing inhibitors, dose response, biochemical, cell-free fluorescence (AID 449749); format: functional
T4 sequence (P9WMR3 whole entry): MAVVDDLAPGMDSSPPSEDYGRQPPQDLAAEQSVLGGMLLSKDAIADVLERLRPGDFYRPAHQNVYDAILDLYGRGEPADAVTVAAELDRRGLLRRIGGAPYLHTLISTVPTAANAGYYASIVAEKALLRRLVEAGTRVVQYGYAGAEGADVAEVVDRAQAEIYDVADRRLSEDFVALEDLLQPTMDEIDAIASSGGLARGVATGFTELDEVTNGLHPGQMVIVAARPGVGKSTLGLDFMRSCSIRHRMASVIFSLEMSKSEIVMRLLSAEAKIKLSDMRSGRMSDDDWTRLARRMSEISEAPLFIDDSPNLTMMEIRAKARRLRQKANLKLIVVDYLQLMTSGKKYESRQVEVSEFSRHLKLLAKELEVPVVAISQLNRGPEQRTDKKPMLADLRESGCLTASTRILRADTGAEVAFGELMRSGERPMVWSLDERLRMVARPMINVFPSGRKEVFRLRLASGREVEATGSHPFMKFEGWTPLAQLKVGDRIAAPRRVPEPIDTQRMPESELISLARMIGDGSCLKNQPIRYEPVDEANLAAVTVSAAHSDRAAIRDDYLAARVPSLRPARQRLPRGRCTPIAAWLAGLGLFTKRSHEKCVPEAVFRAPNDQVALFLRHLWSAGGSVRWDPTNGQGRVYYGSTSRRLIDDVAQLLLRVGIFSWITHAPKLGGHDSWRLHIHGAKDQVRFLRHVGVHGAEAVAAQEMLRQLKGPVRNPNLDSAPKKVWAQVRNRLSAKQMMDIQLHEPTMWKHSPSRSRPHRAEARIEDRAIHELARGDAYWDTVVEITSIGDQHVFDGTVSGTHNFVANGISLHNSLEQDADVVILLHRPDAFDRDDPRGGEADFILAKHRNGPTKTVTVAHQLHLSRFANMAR

Protein RecA = target: T5, Protein RecA (Mycobacterium tuberculosis, UniProt P9WHJ3); experiment: Fluorescence Cell-Free Homogeneous Dose Retest to Identify Inhibitors of RecA-Intein Splicing Activity. [Related pubchem assays (depositor defined):AID2097, AID2223, AID489010, AID492950]; format: functional
T5 sequence (P9WHJ3 whole entry): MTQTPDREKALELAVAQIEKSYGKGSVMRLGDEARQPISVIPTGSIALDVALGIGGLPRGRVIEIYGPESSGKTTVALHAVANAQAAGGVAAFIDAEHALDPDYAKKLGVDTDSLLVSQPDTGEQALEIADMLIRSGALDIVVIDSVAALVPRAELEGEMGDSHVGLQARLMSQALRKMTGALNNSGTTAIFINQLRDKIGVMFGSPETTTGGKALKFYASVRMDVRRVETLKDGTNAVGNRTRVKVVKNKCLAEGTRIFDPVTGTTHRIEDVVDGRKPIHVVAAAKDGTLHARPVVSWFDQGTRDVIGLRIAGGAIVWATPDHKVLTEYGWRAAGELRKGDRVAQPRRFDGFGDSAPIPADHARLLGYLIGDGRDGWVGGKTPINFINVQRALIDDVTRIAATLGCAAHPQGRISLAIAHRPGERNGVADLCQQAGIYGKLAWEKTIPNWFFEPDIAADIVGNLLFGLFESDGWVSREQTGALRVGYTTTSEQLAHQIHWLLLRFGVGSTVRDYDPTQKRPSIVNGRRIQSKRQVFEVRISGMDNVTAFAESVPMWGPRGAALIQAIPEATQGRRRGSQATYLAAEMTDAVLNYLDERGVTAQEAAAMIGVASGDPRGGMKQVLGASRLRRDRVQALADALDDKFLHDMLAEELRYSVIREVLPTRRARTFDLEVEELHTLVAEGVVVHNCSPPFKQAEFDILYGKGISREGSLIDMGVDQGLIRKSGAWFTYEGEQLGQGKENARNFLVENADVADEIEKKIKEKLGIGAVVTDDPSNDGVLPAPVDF

Cytochrome P450 2C19 = Cytochrome P450 2C19 (Homo sapiens, UniProt P33261); experiment: Cytochrome panel assay with activity outcomes. Panel member name: p450-cyp2c19 Compounds with AC50 equal or less than 10 uM are considered active; format: functional; details: read-out: AC50
Chain of Cytochrome P450 2C19 (P33261 whole entry): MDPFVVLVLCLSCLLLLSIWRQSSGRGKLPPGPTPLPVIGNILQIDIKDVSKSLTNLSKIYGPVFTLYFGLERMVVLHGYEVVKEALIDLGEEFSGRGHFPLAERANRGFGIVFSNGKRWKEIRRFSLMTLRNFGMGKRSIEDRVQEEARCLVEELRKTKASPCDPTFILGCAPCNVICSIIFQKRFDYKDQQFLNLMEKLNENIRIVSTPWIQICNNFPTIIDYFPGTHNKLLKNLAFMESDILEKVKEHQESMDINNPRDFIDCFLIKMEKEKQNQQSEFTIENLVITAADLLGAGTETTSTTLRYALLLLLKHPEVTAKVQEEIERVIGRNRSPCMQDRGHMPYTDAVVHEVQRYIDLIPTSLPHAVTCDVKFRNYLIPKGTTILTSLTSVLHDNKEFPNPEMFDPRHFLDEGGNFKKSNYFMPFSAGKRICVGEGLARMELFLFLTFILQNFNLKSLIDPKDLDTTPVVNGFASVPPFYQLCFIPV

Cytochrome P450 3A4 = Cytochrome P450 3A4 (Homo sapiens, UniProt P08684);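 also: CYP3A4 tested as one member of a cytochrome P450 panel screen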
Chain of Cytochrome P450 3A4 (P08684 whole entry): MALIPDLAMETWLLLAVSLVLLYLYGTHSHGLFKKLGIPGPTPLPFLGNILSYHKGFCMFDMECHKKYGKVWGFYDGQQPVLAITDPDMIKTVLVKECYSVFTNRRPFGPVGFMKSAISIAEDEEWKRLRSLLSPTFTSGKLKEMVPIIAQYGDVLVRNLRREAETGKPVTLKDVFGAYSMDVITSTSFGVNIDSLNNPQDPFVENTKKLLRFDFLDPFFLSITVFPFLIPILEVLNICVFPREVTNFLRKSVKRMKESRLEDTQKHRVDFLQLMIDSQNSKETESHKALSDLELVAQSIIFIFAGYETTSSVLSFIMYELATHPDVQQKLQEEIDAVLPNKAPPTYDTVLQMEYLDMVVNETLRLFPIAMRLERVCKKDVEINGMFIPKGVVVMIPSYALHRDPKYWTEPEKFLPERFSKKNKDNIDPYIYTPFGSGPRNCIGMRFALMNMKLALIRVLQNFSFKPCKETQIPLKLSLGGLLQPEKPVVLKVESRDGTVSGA

[7] = viability of uninfected HEp-2 cells – cell-based, HTS, cytotoxicity control for RSV inhibitor project, dose response (AID 2410); format: functional; details: human respiratory syncytial virus
[8] = Luminescence Cell-Based Dose Retest to Confirm Inhibitors of Cancer Stem Cells. [Related pubchem assays (depositor defined):AID2717, AID2721]; format: functional; details: Homo sapiens

CCn1cnc2cc(NCc3ccc(OC)cc3)ccc21
IC50 [1]: 92.1 µM (active)

COc1ccccc1N1CCN(CCC(=O)Nc2ccc3c(c2)OCO3)CC1
IC50 (Protein skinhead-1): > 100 µM (inactive)

CNc1oc(Cc2cccc3ccccc23)nc1C#N
IC50 [2]: 12.6 µM (active)

CCC(NC(C)c1ccccc1)=C1C(=O)NC(=O)NC1=O (stereo unspecified)
EC50 [3]: 18 µM (active)
EC50 [4]: > 120 µM (not active)
EC50 [5]: 18.2 µM (active)

COc1ccc(N2C(=O)/C(=C\c3ccco3)N=C2SCC(=O)NC(C)(C)C)cc1Cl
AC50 [6]: > 380 µM (inactive)
EC50 (Protein RecA): 20.7 µM (inconclusive)

Cc1cc(C(=O)CSc2n[nH]c(N)n2)c(C)n1-c1cc(F)ccc1F
IC50 [2]: 11.2 µM (active)

COc1ccc(C2C3=C(N=C4SCC(=O)N42)c2ccccc2CC3)cc1OC (stereo unspecified)
IC50 (Protein skinhead-1): > 100 µM (inactive)

CCCCCn1c(CN2CCCCC2C)nc2c1c(=O)n(C)c(=O)n2C (stereo unspecified)
AC50 (Cytochrome P450 2C19): 20 µM (inconclusive)
IC50 [2]: 13.2 µM (active)
AC50 (Cytochrome P450 3A4): 5.01 µM (inconclusive)

Cc1ccc(S(=O)(=O)N2CCCCC2)cc1NC(=O)CNCc1ccco1
IC50 [1]: 198 µM (active)

Cc1ccc(CSc2nc3ccccc3c(=O)n2Cc2ccco2)cc1
IC50 (Protein skinhead-1): > 100 µM (inactive)

N#C/C(=C\c1cc(Cl)c(OCc2ccc(Cl)cc2)c(Cl)c1)C(N)=O
CC50 [7]: 36.8 µM (active)
AC50 [6]: > 380 µM (inactive)
EC50 (Protein RecA): > 380 µM (inconclusive)

COCc1n[nH]c2c1C(c1ccc(OC)cc1)C(C#N)=C(N)O2 (stereo unspecified)
AC50 [6]: 25.8 µM (active)
EC50 (Protein RecA): 6.79 µM (active)

Clc1ccc(-c2cnc3ccccc3n2)cc1
IC50 (Protein skinhead-1): 92 µM (inactive)

CCCc1cc(-c2nc(-c3ccc(Cl)cc3)cs2)ccn1
AC50 [8]: 8.69 µM (active)
IC50 (Protein skinhead-1): 21 µM (active)

Nc1ccc(-n2nc3ccccc3n2)cc1
EC50 [3]: 31.8 µM (active)
EC50 [4]: 67 µM (active)
EC50 [5]: 5.68 µM (active)

CCOc1ccccc1/C=C/C(=O)NCC(=O)N1CCC(N(C)C2CCCCC2C)CC1 (stereo unspecified)
IC50 [2]: 14.8 µM (active)

COc1ccc(S(=O)(=O)N2CCCCCC2)cc1NC(=O)Cc1ccccc1F
EC50 [3]: 76.1 µM (active)
EC50 [4]: > 120 µM (not active)
EC50 [5]: > 120 µM (not active)

CCn1c(CSc2nnc(-c3ccncc3)n2CCOC)nc2cc(C(=O)O)ccc21
IC50 (Protein skinhead-1): > 100 µM (inactive)

Cc1c(Cl)cccc1N=C([S-])/C(=C(\O)c1ccc(Cl)s1)[n+]1ccccc1
AC50 [6]: 19.8 µM (active)
EC50 (Protein RecA): 12.9 µM (active)

Cc1cc(C)c(C)c(S(=O)(=O)Nc2ccc(O)cc2)c1C
IC50 [1]: 45.7 µM (active)

O=C(NCCCn1ccnc1)/C(=C\c1ccc(Br)cc1)NC(=O)c1ccccc1
IC50 [2]: 15.1 µM (active)

Nc1cc2c(cc1N)-c1ccccc1C2
IC50 [1]: 23 µM (active)

CCCCNC(=O)OCC(CC)NC(=O)OCC(C)C (stereo unspecified)
IC50 (Protein skinhead-1): > 100 µM (inactive)

Cc1csc2nc(CNS(=O)(=O)c3ccc4c(c3)CCCC4)cn12
IC50 (Protein skinhead-1): > 100 µM (inactive)

CC(CCn1cccn1)NC(=O)CCc1nnc(CCc2ccccc2)o1 (stereo unspecified)
AC50 [6]: > 380 µM (inactive)
EC50 (Protein RecA): > 380 µM (inactive)

COCCCNC(=O)c1ccc(OC)c(OC2CCN(C(C)C)CC2)c1
IC50 [2]: 2.51 µM (active)

CCc1nc2ccccc2c(C(=O)OCC(=O)N(CCOC)c2c(N)n(Cc3ccccc3)c(=O)[nH]c2=O)c1C
IC50 (Protein skinhead-1): > 100 µM (inactive)

O=C(Cc1ccc(Cl)cc1)N/N=C/c1ccc(O)c(O)c1
IC50 [1]: 19.7 µM (active)

COc1cc(/C=N/NC(=O)c2cn(-c3cccc(C)n3)cn2)ccc1O
IC50 [1]: 36.1 µM (active)

COc1ccccc1N1CCN(/N=C/c2ccc(O)cc2O)CC1
IC50 [1]: 48 µM (active)

C[N+](C)(C)CC=O [BETAINE ALDEHYDE CHLORIDE]
IC50 [2]: 15.1 µM (active)
